# Entries after “also recorded” stand apart in the source; their conditions may differ. Read-outs that look alike come from different tables or passages of the source.
# Assays:
# RAW 264.7 macrophages = assay: LPS-induced inflammatory gene expression (qRT-PCR) in RAW 264.7 macrophages; type: cell-based; details: LPS 1 µg/ml for 3 h
# Protocol: RAW 264.7 macrophages or BMDMs were seeded at a density of 250,000 cells per well into a 12-well tissue culture plate in 1 ml of media and left to incubate overnight. The indicated drug or vehicle control was added to each well, and the plate was agitated and left to incubate for 10 min. The cells were then treated with LPS (1 μg/ml) or an equivalent volume of PBS, agitated, and left to incubate for 3 h. Cells were washed with PBS and then RNA isolation was performed using RNeasy Plus Micro Kit (74134; Qiagen). cDNA was produced using GoScript Reverse Transcriptase ([…]; Promega) and a quantitative PCR was performed using SensiFast SYBR (98020; Bioline) and Bio-Rad CFX Connect thermocycler. Each datum represents an individual, biological replicate that is the mean of duplicate technical replicates. Fold-changes are all reported relative to untreated controls for each experiment and were calculated using the ΔΔCt method, with β2-microglobulin used as the housekeeping gene for each sample. The experiment was performed similarly with BV-2 microglia and alveolar macrophages, except that cells were plated at a density of 100,000 cells per well into a 24-well tissue culture plate with 1 ml of media per well.
# lymphocytes = tested on: lymphocytes; set-up: method as in Brinkmann et al., 2002; Zhu et al., 2007; details: ref Brinkmann et al., 2002; Zhu et al., 2007; cited from earlier work
# mouse TRPM7 = biological target: T1, mouse TRPM7 (Mus musculus, UniProt Q923J1); assay: Whole-cell patch clamp of TRPM7 current (IM7) in HEK 293T cells overexpressing mouse TRPM7; type: cell-based
# T1 construct: expressed in transfected cells; host or cells: HEK 293T cells (CRL-3216; ATCC), transient transfection with jetOPTIMUS, co-transfected eGFP as a separate plasmid
# T1 sequence (Q923J1 whole entry): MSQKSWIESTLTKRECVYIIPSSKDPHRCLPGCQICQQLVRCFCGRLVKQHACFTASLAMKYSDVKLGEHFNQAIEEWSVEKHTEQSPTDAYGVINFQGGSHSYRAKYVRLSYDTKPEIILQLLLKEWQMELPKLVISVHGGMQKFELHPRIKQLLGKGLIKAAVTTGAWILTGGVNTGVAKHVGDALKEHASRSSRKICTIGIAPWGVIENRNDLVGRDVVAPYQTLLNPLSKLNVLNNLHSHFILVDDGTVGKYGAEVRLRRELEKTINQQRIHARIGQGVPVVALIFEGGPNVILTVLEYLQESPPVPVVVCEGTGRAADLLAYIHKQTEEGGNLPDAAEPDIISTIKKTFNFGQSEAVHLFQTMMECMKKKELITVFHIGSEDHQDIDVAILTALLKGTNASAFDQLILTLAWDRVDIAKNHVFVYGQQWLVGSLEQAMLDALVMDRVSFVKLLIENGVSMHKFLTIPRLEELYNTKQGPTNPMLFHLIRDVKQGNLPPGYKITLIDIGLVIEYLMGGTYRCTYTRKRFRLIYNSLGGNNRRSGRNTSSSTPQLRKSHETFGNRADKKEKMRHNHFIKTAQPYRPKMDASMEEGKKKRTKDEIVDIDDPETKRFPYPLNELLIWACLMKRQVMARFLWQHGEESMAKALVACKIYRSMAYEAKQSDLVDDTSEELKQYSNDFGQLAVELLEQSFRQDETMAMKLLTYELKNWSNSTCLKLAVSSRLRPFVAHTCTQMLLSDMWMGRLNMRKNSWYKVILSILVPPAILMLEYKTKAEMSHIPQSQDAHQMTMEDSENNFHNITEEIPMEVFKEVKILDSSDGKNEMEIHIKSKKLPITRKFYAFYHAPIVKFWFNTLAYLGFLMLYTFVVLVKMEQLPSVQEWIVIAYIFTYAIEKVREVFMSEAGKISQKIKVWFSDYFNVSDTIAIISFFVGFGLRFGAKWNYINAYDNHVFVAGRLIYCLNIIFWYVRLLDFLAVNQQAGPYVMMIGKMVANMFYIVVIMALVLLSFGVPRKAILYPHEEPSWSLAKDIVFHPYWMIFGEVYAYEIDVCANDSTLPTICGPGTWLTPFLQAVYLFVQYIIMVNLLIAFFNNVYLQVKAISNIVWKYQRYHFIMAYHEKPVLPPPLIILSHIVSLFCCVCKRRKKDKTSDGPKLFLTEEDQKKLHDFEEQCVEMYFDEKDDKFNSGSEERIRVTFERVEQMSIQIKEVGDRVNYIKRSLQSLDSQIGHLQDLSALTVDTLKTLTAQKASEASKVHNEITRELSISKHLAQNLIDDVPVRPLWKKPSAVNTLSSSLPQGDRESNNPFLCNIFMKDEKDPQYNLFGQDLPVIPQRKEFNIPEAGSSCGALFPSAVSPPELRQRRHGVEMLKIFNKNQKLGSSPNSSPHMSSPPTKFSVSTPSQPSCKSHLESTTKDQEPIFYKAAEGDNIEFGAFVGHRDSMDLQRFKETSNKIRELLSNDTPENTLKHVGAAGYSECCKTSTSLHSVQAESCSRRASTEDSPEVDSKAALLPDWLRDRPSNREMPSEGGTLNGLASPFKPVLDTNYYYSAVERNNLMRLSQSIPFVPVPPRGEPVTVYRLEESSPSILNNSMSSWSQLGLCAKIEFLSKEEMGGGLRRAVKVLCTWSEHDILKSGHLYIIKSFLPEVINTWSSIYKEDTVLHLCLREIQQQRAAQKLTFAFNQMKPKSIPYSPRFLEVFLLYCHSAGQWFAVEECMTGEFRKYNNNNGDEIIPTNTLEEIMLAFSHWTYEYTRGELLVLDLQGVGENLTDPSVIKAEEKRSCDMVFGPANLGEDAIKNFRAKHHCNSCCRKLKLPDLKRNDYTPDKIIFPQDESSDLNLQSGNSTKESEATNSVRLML
# Protocol: To overexpress TRPM7, HEK 293T cells were plated at a density of 500,000 cells per well (day 0), transfected at 80–90% confluency (day 1), and were patched 24–36 h after transfection (day 2). TRPM7 overexpression was performed using WT mouse TRPM7 (2.5 µg plasmid DNA; [Desai et al., 2012]) and jetOPTIMUS DNA Transfection Reagent (101000006; Polyplus). To enhance the selection rate of TRPM7-overexpressing cells, eGFP (#22152; Addgene) was included at a 1:10 dilution (0.25 µg) and only GFP-positive cells were patched.
# Whole-cell patch clamp electrophysiology was performed as described previously ([Schappe et al., 2022]). Briefly, the external solution contained (in mM) 140 Na-methanesulfonate, 5 Cs-gluconate, 2.5 CaCl2, and 10 HEPES, pH 7.4 (adjusted with NaOH), at an osmolality of 280–290 mOsm/kg. The internal pipette solution contained (in mM) 115 Cs-gluconate, 3 NaCl, 0.75 CaCl2, 10 HEPES, 10 HEDTA, 1.8 Cs4-BAPTA, and 2 Na2ATP, pH 7.3 (adjusted with CsOH), at an osmolality of 273 mOsm/kg. Intracellular free [Ca^2+] was estimated to be ∼100 nM using the online WEBMAXC standard calculator at https://somapp.ucdmc.ucdavis.edu/pharmacology/bers/maxchelator/webmaxc/webmaxcS.htm ([Bers et al., 2010]). Recordings were captured in pCLAMP 9 (Molecular Devices) using a 400-ms ramp protocol from −100 to +100 mV and a holding potential of 0 mV. Sampling was performed at 10 kHz with a 5 kHz low-pass band filter using an Axopatch 200B amplifier (Molecular Devices). All electrophysiology experiments were conducted at RT (∼23°C). […] Similarly, the minimum current for each inhibitor dose is taken as the stable minimum current observed after the drug has had time to exert an effect and after the flow-driven transient increase has subsided.
# Data were analyzed using Microsoft Excel, Prism 9.5 (GraphPad Software), and Origin Pro 7.5 (OriginLab). Chemical structures were created using ChemDraw Professional 20.1.1 (PerkinElmer). Electrophysiology traces were plotted using Origin Pro 7.5, and the remaining data were plotted and statistically tested using Prism. Outliers were determined using the robust regression and outlier removal (ROUT) function within Prism. IC50 values were determined by plotting the percentage of maximum current observed as a function of applied drug concentration. A non-linear regression was fit using a standard Hill slope of −1.0 and the model: Y=100/[1+([Inhibitor]/IC50)]. Where appropriate, data are presented as individual values; otherwise the sample sizes and precision measures are indicated in the figure legends. P values of <0.05 were considered statistically significant.
# S1P receptors = details: cited from earlier work; for Effect on S1PRs: non-phosphorylated form, ref Qin et al., 2013
# BMDMs = assay: LPS-induced inflammation assay in WT and TRPM7 KO BMDMs (qRT-PCR); type: cell-based, mice; details: 10 µM VPC4, 10 µM AAL-149, 5 µM FTY720, 30 μM NS8593
# Protocol: All cells were cultured at 37°C with 5% CO2. HEK 293T cells (CRL-3216; ATCC), HeLa cells (CCL-2; ATCC), RAW 264.7 macrophages (TIB-71; ATCC), and BV-2 microglial cells (ABC-TC212S; AcceGen Biotech) were cultured in DMEM (11995065; Gibco) with 10% fetal bovine serum (FBS; Avantor Seradigm Premium Grade Fetal Bovine Serum 97068-085). FBS was heat-inactivated prior to use at 56°C for 30 min. BMDMs were isolated and cultured as previously described ([Schappe et al., 2018]) and differentiated into mature macrophages over 7 d through culture in BMDM media (RPMI 1640, 10% FBS, and 20% L-929 culture supernatant; Gibco).
# RAW 264.7 macrophages or BMDMs were seeded at a density of 250,000 cells per well into a 12-well tissue culture plate in 1 ml of media and left to incubate overnight. The indicated drug or vehicle control was added to each well, and the plate was agitated and left to incubate for 10 min. The cells were then treated with LPS (1 µg/ml) or an equivalent volume of PBS, agitated, and left to incubate for 3 h. Cells were washed with PBS and then RNA isolation was performed using RNeasy Plus Micro Kit (74134; Qiagen). cDNA was produced using GoScript Reverse Transcriptase (A5004; Promega) and a quantitative PCR was performed using SensiFast SYBR (98020; Bioline) and Bio-Rad CFX Connect thermocycler. Each datum represents an individual, biological replicate that is the mean of duplicate technical replicates. Fold-changes are all reported relative to untreated controls for each experiment and were calculated using the ∆∆Ct method, with β2-microglobulin used as the housekeeping gene for each sample. The experiment was performed similarly with BV-2 microglia and alveolar macrophages, except that cells were plated at a density of 100,000 cells per well into a 24-well tissue culture plate with 1 ml of media per well.
# HeLa cells = assay: LDH-release cytotoxicity assay; type: cell-based; details: 24 h
# Protocol: WT HeLa cells were plated at a density of 10,000 cells per well into a 96-well tissue culture microplate (3610; Costar). AAL-149, VPC01091.4, or vehicle at 0.1, 1, 5, 10, and 25 μM was added to cells with media for a final volume of 100 μl and incubated for 24 h. LDH release was quantified using a CyQUANT LDH Cytotoxicity Assay (C20300; Thermo Fisher Scientific) and a FlexStation 3 plate reader using SoftMax […] (Molecular Devices).
# TRPM7 = details: cited from earlier work; for IC50: read-out: IC50 for TRPM7 inhibition
# [1] = tested on: small-conductance Ca^2+-activated K^+ (SK) channels; set-up: method as in Diness et al., 2010; details: ref Diness et al., 2010; read-out: IC50 on SK-family channels; cited from earlier work
# [2] = non-phosphorylated form, ref Qin et al., 2013
smiles,measurement,setting,value
"CCCCCCCOc1ccc(CC[C@](C)(N)CO)cc1 [AAL-149, (2S)-2-amino-4-(4-heptoxyphenyl)-2-methylbutan-1-ol]",LPS-stimulated IL-1β gene expression,RAW 264.7 macrophages; 10 µM pretreatment,completely abrogated
same,Lymphopenia when administered to mice,lymphocytes,do not evoke lymphopenia
same,IC50,mouse TRPM7,1.08 µM
same,Activity at S1P receptors,"S1P receptors; ref Brinkmann et al., 2002, Zhu et al., 2007",not active
same,LPS-induced IL-1β expression in TRPM7 KO BMDMs,BMDMs,able to suppress
same,Cytotoxicity (LDH release),HeLa cells; dosages up to 10 µM,did not result in any significant cytotoxicity
same,Mean cytotoxicity (LDH release),HeLa cells; each dose up to 25 µM,< 5%
"CCCCCCCCc1ccc(CCC(N)(CO)CO)cc1 [FTY720, fingolimod]",Effect on whole-cell TRPM7 current (IM7),mouse TRPM7; 5 µM,inhibited; also recorded: able to inhibit
same,IC50,TRPM7; [2],0.72 µM
same,Effect on S1PRs,S1P receptors,no effect
same,LPS-induced IL-1β expression in TRPM7 KO BMDMs,BMDMs,able to suppress
"CCCCCCCCCCCCC/C=C/[C@H](O)[C@@H](N)CO [L-threo-sphingosine, L-threo-(2S,3S)-sphingosine, reference compound]",IC50,"mouse TRPM7; peak current at +100 mV, HEK 293T overexpressing mouse TRPM7, Hill slope -1.0, read-out: IC50 for inhibition of TRPM7 current (IM7)",3.38 µM
"c1ccc2c(c1)CCC[C@H]2Nc1nc2ccccc2[nH]1 [NS8593, (R)-N-(benzimidazol-2-yl)-1,2,3,4-tetrahydro-1-naphtylamine]",IC50,[1],0.42 to 0.73 µM
same,IC50,"TRPM7; ref Chubanov et al., 2012",1.6 µM
same,LPS-induced IL-1β expression in TRPM7 KO BMDMs,BMDMs,able to suppress
"CCCCCCCCCCCCC/C=C/[C@@H](O)[C@@H](N)COP(=O)(O)O [S1P, sphingosine-1-phosphate]",Effect of phosphorylated forms on IM7,"TRPM7; ref Qin et al., 2013",do not inhibit
"CCCCCCCCc1ccc([C@H]2CC[C@](N)(CO)C2)cc1 [VPC01091.1, ((1R,3S)-1-amino-3-(4-octylphenyl)cyclopentyl)methanol]",Effect on whole-cell TRPM7 current (IM7),mouse TRPM7; 10 µM,inhibited
"CCCCCCCCc1ccc([C@H]2CC[C@@](N)(COP(=O)(O)O)C2)cc1 [VPC01091.2-P, ((1S,3S)-1-amino-3-(4-octylphenyl)cyclopentyl)methyl dihydrogen phosphate]",LPS-stimulated IL-1β gene expression,"RAW 264.7 macrophages; pretreatment, concentration not given",no significant inhibition
same,Effect on whole-cell TRPM7 current (IM7),mouse TRPM7; 10 µM,negligible effect; also recorded: no effect
"CCCCCCCCc1ccc([C@@H]2CC[C@](N)(CO)C2)cc1 [VPC01091.3, ((1R,3R)-1-amino-3-(4-octylphenyl)cyclopentyl)methanol]",Effect on whole-cell TRPM7 current (IM7),mouse TRPM7; 10 µM,inhibited
C=C1CC/C=C(\C)CC[C@@H]2C([C@H](C/C=C(\C)COC(C)=O)OC(C)=O)=CO[C@H](OC(C)=O)[C@@H]12 [Waixenicin A],Time to suppress ITRPM7,"TRPM7; 10 μM, ref Zierler et al., 2011",up to 200 s
same,IC50,"TRPM7; Mg^2+-free conditions, ref Zierler et al., 2011",7 µM
same,IC50,"TRPM7; recording conditions that limit the development of TRPM7 currents, ref Zierler et al., 2011",0.016 µM
"CCCCCCCCCCCCC/C=C/[C@@H](O)[C@@H](N)CO [sphingosine, D-erythro-sphingosine, reference compound]",IC50,TRPM7; [2],0.59 µM
same,Effect on S1PRs,S1P receptors,no effect
